Test results published in patent publication US8268369B2, “Compositions and methods for treating hypercholesterolemia using Ortanique peel extract” (The University of the West Indies, priority 2008, dated 2012).
Marks after values point to notes of the source that are not given here.

Assays:
glutathione peroxidase = test: Glutathione peroxidase activity in organs of rats; format: in vivo; settings: hypercholesterolemic rats
[1] = tested on: diet-induced hypercholesterolemic rats; test: Kidney function: serum creatinine and urea; settings: comparison among the groups
glutathione transferase = test: Glutathione transferase activity in organs of rats; format: in vivo; settings: hypercholesterolemic rats
glutathione reductase = test: Glutathione reductase activity in organs of rats; format: in vivo; settings: hypercholesterolemic rats

level of serum creatinine [1]: no significant differences
level of serum urea [1]: no significant differences
Compound: O=C(O)c1cccnc1 [niacin]
Glutathione Peroxidase Activity, Brain (glutathione peroxidase; brain): 0.59 ± 0.18^a nmol/min/mg protein
Glutathione Peroxidase Activity, Heart (glutathione peroxidase; heart): 5.14 ± 0.63^a nmol/min/mg protein
Glutathione Peroxidase Activity, Kidney (glutathione peroxidase; kidney): 3.35 ± 1.30^a nmol/min/mg protein
Glutathione Peroxidase Activity, Spleen (glutathione peroxidase; spleen): 0.21 ± 0.034^a nmol/min/mg protein
Glutathione Transferase Activity, Brain (glutathione transferase; brain): 0.28 ± 0.04^a nmol/min/mg protein
Glutathione Transferase Activity, Heart (glutathione transferase; heart): 0.21 ± 0.011^a nmol/min/mg protein
Glutathione Transferase Activity, Kidney (glutathione transferase; kidney): 0.20 ± 0.05^b nmol/min/mg protein
Glutathione Transferase Activity, Spleen (glutathione transferase; spleen): 0.16 ± 0.07^b nmol/min/mg protein
Glutathione Reductase Activity, Brain (glutathione reductase; brain): 14.95 ± 1.67^a nmol/min/mg protein
Glutathione Reductase Activity, Heart (glutathione reductase; heart): 12.53 ± 0.85^a nmol/min/mg protein
Glutathione Reductase Activity, Kidney (glutathione reductase; kidney): 12.36 ± 0.10^a nmol/min/mg protein
Glutathione Reductase Activity, Spleen (glutathione reductase; spleen): 49.48 ± 3.32^a nmol/min/mg protein
